Tests used:
[1] = molecular target: human TYK2 (JH2domain-pseudokinase) (Homo sapiens (Human), UniProt P29597); test: TYK2 JH2 Domain Binding Assay (KINOMEscan)
How it was run: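 Pseudokinase domain binding was measured by qPCR of tagged, bead-retained kinase after 1 h room-temperature competition, with 0.9% DMSO and compound up to 30,000 nM in 3-fold steps. Hill-equation Kd, duplicate.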

[2] = molecular target: JAK2 kinase domain (JH1) (Homo sapiens (Human), UniProt O60674); test: JAK2 Radioactive Kinase Assay; type: biochemical; settings: compound at 10 μM; ATP 10 μM; read-out: JAK2 JH1% Inhibition @ 10 μM
Chain of JAK2 kinase domain (JH1) (O60674 849-1124): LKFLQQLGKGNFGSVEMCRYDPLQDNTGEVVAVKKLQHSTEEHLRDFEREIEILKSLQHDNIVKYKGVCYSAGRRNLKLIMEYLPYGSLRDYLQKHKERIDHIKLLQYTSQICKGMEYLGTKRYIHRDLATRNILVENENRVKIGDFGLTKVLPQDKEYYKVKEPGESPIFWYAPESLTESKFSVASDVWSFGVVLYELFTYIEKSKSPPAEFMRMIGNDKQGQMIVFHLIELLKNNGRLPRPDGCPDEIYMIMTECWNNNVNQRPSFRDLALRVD
How it was run: (§1)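 Compounds were tested at a single concentration of 10 μM in a radiometric kinase format against each isolated kinase domain. Activity is reported as percent inhibition at that concentration.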

[3] = molecular target: Tyk2 kinase domain (DH1) (Homo sapiens (Human), UniProt P29597); test: Tyk2 Radioactive Kinase Assay; type: biochemical; settings: compound at 10 μM; ATP 10 μM; read-out: Tyk2 JH1% Inhibition @ 10 μM
Chain of Tyk2 kinase domain (DH1) (P29597 897-1176): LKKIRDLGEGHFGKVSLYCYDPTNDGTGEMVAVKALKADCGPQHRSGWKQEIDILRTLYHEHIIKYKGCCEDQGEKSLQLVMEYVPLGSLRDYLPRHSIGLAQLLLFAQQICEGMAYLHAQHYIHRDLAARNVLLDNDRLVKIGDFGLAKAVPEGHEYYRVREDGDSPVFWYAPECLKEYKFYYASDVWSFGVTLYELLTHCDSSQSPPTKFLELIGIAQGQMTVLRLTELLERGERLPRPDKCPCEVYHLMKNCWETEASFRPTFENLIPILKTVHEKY
How it was run: as §1

Chain of human TYK2 (JH2domain-pseudokinase) (P29597 556-888): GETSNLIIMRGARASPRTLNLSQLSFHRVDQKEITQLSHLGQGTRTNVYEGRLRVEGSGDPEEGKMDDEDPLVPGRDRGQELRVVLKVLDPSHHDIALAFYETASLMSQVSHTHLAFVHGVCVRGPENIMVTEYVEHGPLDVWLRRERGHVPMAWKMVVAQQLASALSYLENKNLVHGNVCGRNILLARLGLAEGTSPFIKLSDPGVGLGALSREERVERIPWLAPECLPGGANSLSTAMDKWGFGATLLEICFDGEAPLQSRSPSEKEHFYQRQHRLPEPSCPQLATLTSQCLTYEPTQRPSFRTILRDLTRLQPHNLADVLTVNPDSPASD

Kd [1]	inhibition at 10 µM [2]	inhibition at 10 µM [3]	Compound
0.2 to 1 nM	< 50%	< 50%	CNc1cc(Nc2cccnc2O[C@@H]2CCOC2)nc2c(C(=O)NC3CC3)cnn12 [I-172]
0.2 to 1 nM	< 50%	< 50%	CNc1cc(Nc2cccnc2OC2CCOCC2)nc2c(C(=O)NC3CC3)cnn12 [I-173]
< 0.2 nM	< 50%	< 50%	CNc1cc(Nc2cccnc2OC2CCOCC2)nc2c(C(=O)N[C@H]3C[C@H]3F)cnn12 [I-174]
0.2 to 1 nM	< 50%	< 50%	CNc1cc(Nc2cc(Cl)cn(-c3cn(C4CC4)nc3C)c2=O)nc2c(C(N)=O)cnn12 [I-178]
0.2 to 1 nM	< 50%	< 50%	CNc1cc(Nc2cc(Cl)cn(-c3cn(C4CC4)nc3C)c2=O)nc2c(C(=O)NC3CCC3)cnn12 [I-179]
< 0.2 nM	< 50%	< 50%	CNc1cc(Nc2cc(Cl)cn(-c3cnn(C4CC4)c3C)c2=O)nc2c(C(N)=O)cnn12 [I-180]
0.2 to 1 nM	< 50%	< 50%	CNc1cc(Nc2cc(Cl)cn(-c3cnn(C4CC4)c3C)c2=O)nc2c(C(=O)NC3CCC3)cnn12 [I-181]
< 0.2 nM	< 50%	< 50%	CNc1cc(Nc2cccnc2O[C@H]2C[C@@H](OC)C2)nc2c(C(=O)NC3CCC3)cnn12 [I-183]
0.2 to 1 nM	< 50%	< 50%	CNc1cc(Nc2cccnc2O[C@H]2C[C@@H](OC)C2)nc2c(C(=O)NC3CC3)cnn12 [I-184]
0.2 to 1 nM	< 50%	< 50%	CNc1cc(Nc2cccnc2OC2CCOCC2)nc2c(C(=O)NC3CCC3)cnn12 [I-185]
< 0.2 nM	< 50%	< 50%	CNc1cc(Nc2cccnc2O[C@H]2C[C@@H](OC)C2)nc2c(C(=O)N[C@H]3C[C@H]3F)cnn12 [I-186]
< 0.2 nM	< 50%	< 50%	CNc1cc(Nc2cccnc2O[C@H]2C[C@H](OC)C2)nc2c(C(=O)NC3CCC3)cnn12 [I-187]
< 0.2 nM	< 50%	< 50%	CNc1cc(Nc2cccnc2O[C@H]2C[C@H](OC)C2)nc2c(C(=O)NC3CC3)cnn12 [I-188]
< 0.2 nM	< 50%	< 50%	CNc1cc(Nc2cccnc2O[C@H]2C[C@H](OC)C2)nc2c(C(=O)N[C@H]3C[C@H]3F)cnn12 [I-189]
< 0.2 nM	< 50%	< 50%	CNc1cc(Nc2cccn(C3CCN(CC(F)F)CC3)c2=O)nc2c(C(=O)NC3CC3)cnn12 [I-191]
0.2 to 1 nM	< 50%	< 50%	CNc1cc(Nc2cccn([C@@H]3CCOC3)c2=O)nc2c(C(N)=O)cnn12 [I-195]
0.2 to 1 nM	< 50%	< 50%	CNc1cc(Nc2cccn([C@H]3CCOC3)c2=O)nc2c(C(N)=O)cnn12 [I-196]
0.2 to 1 nM	< 50%	< 50%	CNc1cc(-c2c[nH]c3c(C4CCOCC4)cc(Cl)cc23)nc2c(C(=O)NC3CC3)cnn12 [I-197]
0.2 to 1 nM	< 50%	< 50%	CNc1cc(Nc2cccnc2OC(CO)CO)nc2c(C(=O)NC3CC3)cnn12 [I-199]
0.2 to 1 nM	< 50%	< 50%	CNc1cc(Nc2cccnc2OC(CO)CO)nc2c(C(=O)N[C@H]3C[C@H]3F)cnn12 [I-200]
< 0.2 nM	< 50%	< 50%	CNc1cc(Nc2cccnc2OC(CO)CO)nc2c(C(=O)NC3CCC3)cnn12 [I-201]
0.2 to 1 nM	< 50%	< 50%	CNc1cc(Nc2cccn([C@@H]3CCOC3)c2=O)nc2c(C(=O)NC3CC3)cnn12 [I-202]
< 0.2 nM	< 50%	< 50%	CNc1cc(Nc2cccn([C@H]3CCOC3)c2=O)nc2c(C(=O)NC3CC3)cnn12 [I-203]
0.2 to 1 nM	< 50%	< 50%	CNc1cc(Nc2cccn([C@@H]3CCOC3)c2=O)nc2c(C(=O)NC3CCC3)cnn12 [I-204]
< 0.2 nM	< 50%	< 50%	CNc1cc(Nc2cccn([C@H]3CCOC3)c2=O)nc2c(C(=O)NC3CCC3)cnn12 [I-205]

Kd [1]	inhibition at 10 µM [2]	inhibition at 10 µM [3]	Compound
1 to 10 nM	< 50%	< 50%	Cc1c(Nc2cccnc2OC(C)C)nc2c(C(=O)NC3CC3)cnn2c1N [I-207, 7-amino-N-cyclopropyl-5-((2-isopropoxypyridin-3-yl)amino)-6-methylpyrazolo[1,5-a]pyrimidine-3-carboxamide]
1 to 10 nM	< 50%	< 50%	Cc1c(Nc2cccnc2OC(C)C)nc2c(C(=O)NC3CCC3)cnn2c1N [I-208, 7-amino-N-cyclobutyl-5-((2-isopropoxypyridin-3-yl)amino)-6-methyl pyrazolo[1,5-a]pyrimidine-3-carboxamide]
0.2 to 1 nM	< 50%	< 50%	CNc1cc(Nc2cc(F)cnc2OC(C)C)nc2c(C(=O)NC3CC3)cnn12 [I-209]
0.2 to 1 nM	< 50%	< 50%	CNc1cc(Nc2cc(F)cnc2OC(C)C)nc2c(C(=O)NC3CCC3)cnn12 [I-210]
0.2 to 1 nM	< 50%	< 50%	CNc1cc(Nc2cc(C)cnc2OC(C)C)nc2c(C(=O)NC3CC3)cnn12 [I-212]
1 to 10 nM	< 50%	< 50%	CNc1cc(Nc2cc(C)cnc2OC(C)C)nc2c(C(=O)NC3CCC3)cnn12 [I-213]
< 0.2 nM	< 50%	< 50%	CNc1cc(Nc2cc(C)cnc2OC(C)C)nc2c(C(=O)N[C@H]3C[C@H]3F)cnn12 [I-214]
< 0.2 nM	< 50%	< 50%	CNc1cc(Nc2cccnc2OCCOC)nc2c(C(=O)NC3CC3)cnn12 [I-218]
1 to 10 nM	< 50%	< 50%	CNc1cc(Nc2cccnc2OC2CCCCC2)nc2c(C(=O)NC3CC3)cnn12 [I-221]
1 to 10 nM	< 50%	< 50%	CNc1cc(Nc2cccnc2OC2CCCCC2)nc2c(C(=O)NC3CCC3)cnn12 [I-226]
0.2 to 1 nM	< 50%	< 50%	CNc1cc(Nc2cccnc2OC2CCCCC2)nc2c(C(=O)N[C@H]3C[C@H]3F)cnn12 [I-227]
1 to 10 nM	< 50%	< 50%	CNc1cc(Nc2cccnc2OC2COC2)nc2c(C(=O)NC3CC3)cnn12 [I-228]
0.2 to 1 nM	< 50%	< 50%	CNc1cc(Nc2cccn(C3CCN(CC(F)F)CC3)c2=O)nc2c(C(=O)N[C@H]3C[C@H]3F)cnn12 [I-230]
0.2 to 1 nM	< 50%	< 50%	CNc1cc(Nc2cccnc2O[C@H]2CC[C@H](O)CC2)nc2c(C(=O)NC3CC3)cnn12 [I-231]
< 0.2 nM	< 50%	< 50%	CNc1cc(Nc2cccnc2O[C@H]2CC[C@H](O)CC2)nc2c(C(=O)NC3CCC3)cnn12 [I-232]
< 0.2 nM	< 50%	< 50%	CNc1cc(Nc2cccnc2O[C@H]2CC[C@H](O)CC2)nc2c(C(=O)N[C@H]3C[C@H]3F)cnn12 [I-239]
< 0.2 nM	< 50%	< 50%	CNc1cc(Nc2cccn(-c3ccc(C4CC4)nn3)c2=O)nc2c(C(=O)NC3CC3)cnn12 [I-241]
< 0.2 nM	< 50%	< 50%	CNc1cc(Nc2cccn(-c3nccs3)c2=O)nc2c(C(=O)NC3CCC3)cnn12 [I-242]
< 0.2 nM	< 50%	< 50%	CNc1cc(Nc2cccn(-c3ccc(F)cc3)c2=O)nc2c(C(=O)NCC(C)(C)CO)cnn12 [I-245]
0.2 to 1 nM	< 50%	< 50%	CNc1cc(Nc2cccnc2O[C@H]2CC[C@H](OC)CC2)nc2c(C(=O)NC3CC3)cnn12 [I-247]
0.2 to 1 nM	< 50%	< 50%	CNc1cc(Nc2cccnc2O[C@H]2CC[C@H](OC)CC2)nc2c(C(=O)NC3CCC3)cnn12 [I-248]
< 0.2 nM	< 50%	< 50%	CNc1cc(Nc2cccnc2O[C@H]2CC[C@H](OC)CC2)nc2c(C(=O)N[C@H]3C[C@H]3F)cnn12 [I-249]
< 0.2 nM	< 50%	< 50%	CNc1cc(Nc2cc(C)cn(-c3ccn(C)n3)c2=O)nc2c(C(=O)NC3CCC3)cnn12 [I-251]
1 to 10 nM	< 50%	< 50%	CNc1cc(-c2cn(C(C)C)c3ncc(C)cc23)nc2c(C(=O)NC3CC3)cnn12 [I-252]

Compound	Kd [1]	inhibition at 10 µM [2]	inhibition at 10 µM [3]
CNc1cc(Nc2cccn(-c3cccc(C)n3)c2=O)nc2c(C(=O)NC3CC3)cnn12 [I-237]	< 0.2 nM	< 50%	< 50%

Source: patent US10508120B2, “TYK2 inhibitors and uses thereof” (Nimbus Lakshmi, Inc., priority 2017, dated 2019)
